Results: patent publication US12503436B2, “Compounds and compositions for treating conditions associated with STING activity” (NOVARTIS PHARMA AG, priority 2021, dated 2025)

Target: STING (Homo sapiens, UniProt Q86WV6, G230A/H232R/R293Q/R71H)
Assay: STING reporter assay in THP1-Dual KO-IFNAR2 cells (2′3′cGAMP stimulation, luciferase reporter)
Type: cell-based
Details: 15 μM 2′3′cGAMP stimulation, 24 h, read-out: Pharmaron, THP1_IFNAR2 STING 24 h Luci Normalized: GeoMean EC50
Method in brief: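 EC50 from secreted luciferase (QUANTI-Luc Plus luminescence of supernatant) after 24 h at 37 °C, 5% CO2. Cells: THP1-Dual KO-IFNAR2, treated with compound (0.0017-100 μM final) plus lipofected 2′3′cGAMP at 15 μM final.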

Chain of STING (Q86WV6 whole entry R71H/G230A/H232R/R293Q): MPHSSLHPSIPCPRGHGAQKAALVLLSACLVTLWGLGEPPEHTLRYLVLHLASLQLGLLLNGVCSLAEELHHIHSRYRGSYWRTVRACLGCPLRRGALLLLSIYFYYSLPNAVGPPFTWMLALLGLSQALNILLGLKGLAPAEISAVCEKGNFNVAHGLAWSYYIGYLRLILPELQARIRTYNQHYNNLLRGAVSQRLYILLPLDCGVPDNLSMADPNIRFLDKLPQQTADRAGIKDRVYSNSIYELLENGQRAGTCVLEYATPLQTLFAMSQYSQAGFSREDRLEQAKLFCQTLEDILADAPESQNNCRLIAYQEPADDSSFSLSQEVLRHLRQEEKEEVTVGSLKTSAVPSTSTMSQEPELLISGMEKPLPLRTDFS

Compound	EC50 [nM]
O=C(Nc1c[nH]c2ccc(CCOc3ccc(C(F)(F)F)cc3)cc12)C1CC1(F)Cl (stereo not drawn) [Compound 175, 2-chloro-2-fluoro-N-(5-(2-(4-(trifluoromethyl)phenoxy)ethyl)-1H-indol-3-yl)cyclopropane-1-carboxamide]	200 to 1000
COCC1(C(=O)Nc2c[nH]c3ccc(CCOc4ccc(C(F)(F)F)cc4)cc23)CC1 [Compound 176, 1-(methoxymethyl)-N-(5-{2-[4-(trifluoromethyl)phenoxy]ethyl}-1H-indol-3-yl)cyclopropane-1-carboxamide]	200 to 1000
O=C(Nc1c[nH]c2ccc(CCOc3ccc(C(F)(F)F)cc3)cc12)C1CC(Cl)C1 (stereo not drawn) [Compound 177, 3-chloro-N-(5-(2-(4-(trifluoromethyl)phenoxy)ethyl)-1H-indol-3-yl)cyclobutane-1-carboxamide]	200 to 1000
CC1(C(=O)Nc2c[nH]c3ccc(CCOc4ccc(C(F)(F)F)cc4)cc23)CCOC1 (stereo not drawn) [Compound 178, 3-methyl-N-(5-(2-(4-(trifluoromethyl)phenoxy)ethyl)-1H-indol-3-yl)tetrahydrofuran-3-carboxamide]	200 to 1000
O=C(Nc1c[nH]c2ccc(CCOc3ccc(C(F)(F)F)cc3)cc12)[C@H]1C[C@@H](O)C1 [Compound 179, (1S,3S)-3-hydroxy-N-(5-{2-[4-(trifluoromethyl)phenoxy]ethyl}-1H-indol-3-yl)cyclobutane-1-carboxamide]	200 to 1000
O=C(Nc1c[nH]c2ccc(OCCc3ccc(C(F)(F)F)cc3)cc12)C1CC(O)C1 (stereo not drawn) [Compound 180, 3-hydroxy-N-(5-(4-(trifluoromethyl)phenethoxy)-1H-indol-3-yl)cyclobutane-1-carboxamide]	200 to 1000
O=C(Nc1c[nH]c2ccc(OCCc3ccc(C(F)(F)F)cc3)cc12)C1CC1(F)F (stereo not drawn) [Compound 181, 2,2-difluoro-N-(5-(4-(trifluoromethyl)phenethoxy)-1H-indol-3-yl)cyclopropane-1-carboxamide]	200 to 1000
O=C(Nc1c[nH]c2ccc(OCC[C@@H]3C[C@@H]4CN(CC(F)(F)F)C[C@@H]4C3)cc12)C1CC1 [Compound 182, N-(5-(2-((3aR,5r,6aS)-2-(2,2,2-trifluoroethyl)octahydrocyclopenta[c]pyrrol-5-yl)ethoxy)-1H-indol-3-yl)cyclopropanecarboxamide]	200 to 1000
O=C(Nc1c[nH]c2ccc(OCCc3cnc(N4CCC(F)(F)CC4)c(F)c3)cc12)C1CC1 [Compound 183, N-(5-(2-(6-(4,4-difluoropiperidin-1-yl)-5-fluoropyridin-3-yl)ethoxy)-1H-indol-3-yl)cyclopropanecarboxamide]	200 to 1000
CC(=O)Nc1c[nH]c2ccc(CCOc3cnc(C(F)(F)F)nc3)cc12 [Compound 184, N-(5-(2-((2-(trifluoromethyl)pyrimidin-5-yl)oxy)ethyl)-1H-indol-3-yl)acetamide]	5000 to 100000
O=C(Nc1c[nH]c2ccc(OCCc3ccc(C(F)(F)F)cc3)cc12)C1(C(F)(F)F)CC1 [Compound 185, 1-(trifluoromethyl)-N-(5-(4-(trifluoromethyl)phenethoxy)-1H-indol-3-yl)cyclopropane-1-carboxamide]	200 to 1000
CC(C)(C)C(=O)Nc1c[nH]c2ccc(OCCc3ccc(C(F)(F)F)cc3)cc12 [Compound 186, N-(5-(4-(trifluoromethyl)phenethoxy)-1H-indol-3-yl)pivalamide]	200 to 1000
N#CC1CCC1C(=O)Nc1c[nH]c2ccc(OCCc3ccc(C(F)(F)F)cc3)cc12 (stereo not drawn) [Compound 187, 2-cyano-N-(5-(4-(trifluoromethyl)phenethoxy)-1H-indol-3-yl)cyclobutane-1-carboxamide]	200 to 1000
N#C[C@@H]1C[C@@H]1C(=O)Nc1c[nH]c2ccc(OCCc3ccc(C(F)(F)F)cc3)cc12 [Compound 188, (1S,2R)-2-cyano-N-(5-(4-(trifluoromethyl)phenethoxy)-1H-indol-3-yl)cyclopropane-1-carboxamide]	200 to 1000
CC1(C(=O)Nc2c[nH]c3ccc(OCCc4ccc(C(F)(F)F)cc4)cc23)CCOC1 (stereo not drawn) [Compound 189, 3-methyl-N-(5-(4-(trifluoromethyl)phenethoxy)-1H-indol-3-yl)tetrahydrofuran-3-carboxamide]	200 to 1000
O=C(Nc1c[nH]c2ccc(OCCc3ccc(C(F)(F)F)cc3)cc12)[C@H]1C[C@@H](O)C1 [Compound 190, (1S,3S)-3-hydroxy-N-(5-(4-(trifluoromethyl)phenethoxy)-1H-indol-3-yl)cyclobutanecarboxamide]	200 to 1000
CC1(C(=O)Nc2c[nH]c3ccc(OCCc4ccc(C(F)(F)F)cc4)cc23)CCCO1 (stereo not drawn) [Compound 191, 2-methyl-N-(5-(4-(trifluoromethyl)phenethoxy)-1H-indol-3-yl)tetrahydrofuran-2-carboxamide]	200 to 1000
CC1(C)CC1C(=O)Nc1c[nH]c2ccc(OCCc3ccc(C(F)(F)F)cc3)cc12 (stereo not drawn) [Compound 192, 2,2-dimethyl-N-(5-(4-(trifluoromethyl)phenethoxy)-1H-indol-3-yl)cyclopropane-1-carboxamide]	40 to 200
N#CC1(C(=O)Nc2c[nH]c3ccc(OCCc4ccc(C(F)(F)F)cc4)cc23)CC1 [Compound 193, 1-cyano-N-(5-(4-(trifluoromethyl)phenethoxy)-1H-indol-3-yl)cyclopropane-1-carboxamide]	200 to 1000
CO[C@H]1C[C@H](C(=O)Nc2c[nH]c3ccc(OCCc4ccc(C(F)(F)F)nc4)cc23)C1 [Compound 194, trans-3-methoxy-N-(5-(2-(6-(trifluoromethyl)pyridin-3-yl)ethoxy)-1H-indol-3-yl)cyclobutane-1-carboxamide]	200 to 1000
O=C(Nc1c[nH]c2ccc(OCCc3ccc(C(F)(F)F)nc3)cc12)C1CN(CC(F)(F)F)C1 [Compound 195, 1-(2,2,2-trifluoroethyl)-N-(5-(2-(6-(trifluoromethyl)pyridin-3-yl)ethoxy)-1H-indol-3-yl)azetidine-3-carboxamide]	200 to 1000
CC(=O)Nc1c[nH]c2ccc(OCCn3ccc(C(F)(F)F)n3)cc12 [Compound 196, N-(5-(2-(3-(trifluoromethyl)-1H-pyrazol-1-yl)ethoxy)-1H-indol-3-yl)acetamide]	5000 to 100000
CC(=O)Nc1c[nH]c2ccc(OCCn3cc(C(F)(F)F)cn3)cc12 [Compound 197, N-(5-(2-(4-(trifluoromethyl)-1H-pyrazol-1-yl)ethoxy)-1H-indol-3-yl)acetamide]	5000 to 100000
CC(=O)Nc1c[nH]c2ccc(CCOc3ccc(C4(C)CCN(CC(F)(F)F)CC4)cc3)cc12 [Compound 198, N-(5-(2-(4-(4-methyl-1-(2,2,2-trifluoroethyl)piperidin-4-yl)phenoxy)ethyl)-1H-indol-3-yl)acetamide]	200 to 1000
CC(=O)Nc1c[nH]c2ccc(CCNc3ccc(C(F)(F)F)cn3)cc12 [Compound 199, N-(5-(2-((5-(trifluoromethyl)pyridin-2-yl)amino)ethyl)-1H-indol-3-yl)acetamide]	1000 to 5000
CC(C)(C)CC(=O)Nc1c[nH]c2ccc(OCCc3ccc(C(F)(F)F)cc3)cc12 [Compound 202, 3,3-dimethyl-N-(5-(4-(trifluoromethyl)phenethoxy)-1H-indol-3-yl)butanamide]	40 to 200
N#C[C@H]1C[C@@H]1C(=O)Nc1c[nH]c2ccc(OCCc3ccc(C(F)(F)F)cc3)cc12 [Compound 203, (1S,2S)-2-cyano-N-(5-(4-(trifluoromethyl)phenethoxy)-1H-indol-3-yl)cyclopropane-1-carboxamide]	200 to 1000
